Measurements as given in ChEMBL document CHEMBL1201862, “PubChem BioAssay data set” (2004).
The source made the active and inactive calls.

Tests used:
[1] = molecular target: T1, Oxysterols receptor LXR-beta (Homo sapiens, UniProt P55055); assay type: functional, cell-based;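 further: agonist activity at LXR measured by a cell-based luminescence readout across a dose range, run as a counterscreen for daf-12 agonists; HEK293 cells with Gal4-LXR fusion and GAL4-driven luciferase reporter; potency for activation of Gal4-LXR reporter so compounds are agonists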
T1 sequence (P55055 whole entry): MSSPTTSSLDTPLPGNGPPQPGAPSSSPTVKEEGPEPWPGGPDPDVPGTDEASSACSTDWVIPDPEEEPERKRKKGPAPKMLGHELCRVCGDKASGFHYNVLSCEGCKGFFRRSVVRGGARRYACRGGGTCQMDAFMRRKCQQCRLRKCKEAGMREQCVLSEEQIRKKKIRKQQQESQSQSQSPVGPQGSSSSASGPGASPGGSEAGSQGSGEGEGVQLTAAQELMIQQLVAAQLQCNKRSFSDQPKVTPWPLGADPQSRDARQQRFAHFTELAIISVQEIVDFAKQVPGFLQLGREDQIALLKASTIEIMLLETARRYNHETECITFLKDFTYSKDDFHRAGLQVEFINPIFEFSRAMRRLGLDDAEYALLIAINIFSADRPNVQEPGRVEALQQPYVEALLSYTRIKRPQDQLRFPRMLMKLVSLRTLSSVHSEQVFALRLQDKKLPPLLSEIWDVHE

[2] = human group III sPLA2 inhibitors, dose response, biochemical, QFRET, IC50 (AID 743457);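 further: green fluorescence rise as the enzyme cleaves BODIPY PC-A2 in liposomes; potency for inhibition of the enzyme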
[3] = molecular target: T2, Short transient receptor potential channel 4 (Mus musculus, UniProt Q9QUQ5); assay: mouse TRPC4 channel activators, dose response, cell-based, HEK293 TRPC4/mu-opioid, Fluo-4 calcium (AID 434937); assay type: functional
T2 sequence (Q9QUQ5 whole entry): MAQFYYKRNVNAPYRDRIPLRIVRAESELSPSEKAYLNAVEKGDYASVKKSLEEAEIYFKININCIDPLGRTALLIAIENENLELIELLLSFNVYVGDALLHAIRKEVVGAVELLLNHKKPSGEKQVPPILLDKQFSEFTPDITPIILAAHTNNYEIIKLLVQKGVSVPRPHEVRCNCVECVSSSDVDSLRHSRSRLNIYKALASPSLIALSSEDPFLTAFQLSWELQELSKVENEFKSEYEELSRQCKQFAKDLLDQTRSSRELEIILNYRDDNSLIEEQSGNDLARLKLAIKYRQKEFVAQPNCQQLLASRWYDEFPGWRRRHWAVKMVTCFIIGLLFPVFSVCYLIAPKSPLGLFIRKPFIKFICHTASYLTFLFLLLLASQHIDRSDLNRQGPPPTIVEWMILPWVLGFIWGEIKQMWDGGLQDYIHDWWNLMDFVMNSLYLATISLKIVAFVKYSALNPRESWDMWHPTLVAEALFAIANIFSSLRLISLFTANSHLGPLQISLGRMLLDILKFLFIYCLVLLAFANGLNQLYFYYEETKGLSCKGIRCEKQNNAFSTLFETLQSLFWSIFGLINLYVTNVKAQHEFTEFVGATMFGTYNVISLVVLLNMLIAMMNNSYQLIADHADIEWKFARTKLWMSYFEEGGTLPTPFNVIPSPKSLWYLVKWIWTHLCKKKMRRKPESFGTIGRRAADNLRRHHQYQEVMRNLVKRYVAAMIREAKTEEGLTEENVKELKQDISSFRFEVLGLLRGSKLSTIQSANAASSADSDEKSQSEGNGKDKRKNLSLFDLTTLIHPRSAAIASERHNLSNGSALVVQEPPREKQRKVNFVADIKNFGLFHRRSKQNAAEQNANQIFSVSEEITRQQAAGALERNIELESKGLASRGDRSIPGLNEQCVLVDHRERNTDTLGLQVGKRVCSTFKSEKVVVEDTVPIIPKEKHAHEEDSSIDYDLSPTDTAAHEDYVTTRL

[4] = molecular target: T3, Probable nicotinate-nucleotide adenylyltransferase (Staphylococcus aureus (strain N315), UniProt P65502); assay type: functional, Staphylococcus aureus subsp. aureus N315; conditions: read-out: IC50_Mean;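 on IC50 Mean: confirmatory dose-response retesting of NadD inhibitor hits first found in an ultra-high-throughput screen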
[5] = molecular target: T3, Probable nicotinate-nucleotide adenylyltransferase; assay type: functional, Staphylococcus aureus subsp. aureus N315
[6] = Counterscreen for inhibitors of Trypanosoma brucei methionyl tRNA synthetase (MetRS): Luminescence-based cell-based high throughput dose response assay to identify compounds that are cytotoxic to Jurkat human T lymphocyte cells.; assay type: functional
[7] = molecular target: T4, Methionyl-tRNA synthetase, putative (Trypanosoma brucei brucei, UniProt Q38C91); assay type: functional, Trypanosoma brucei brucei strain 927/4 GUTat10.1
T4 sequence (Q38C91 whole entry): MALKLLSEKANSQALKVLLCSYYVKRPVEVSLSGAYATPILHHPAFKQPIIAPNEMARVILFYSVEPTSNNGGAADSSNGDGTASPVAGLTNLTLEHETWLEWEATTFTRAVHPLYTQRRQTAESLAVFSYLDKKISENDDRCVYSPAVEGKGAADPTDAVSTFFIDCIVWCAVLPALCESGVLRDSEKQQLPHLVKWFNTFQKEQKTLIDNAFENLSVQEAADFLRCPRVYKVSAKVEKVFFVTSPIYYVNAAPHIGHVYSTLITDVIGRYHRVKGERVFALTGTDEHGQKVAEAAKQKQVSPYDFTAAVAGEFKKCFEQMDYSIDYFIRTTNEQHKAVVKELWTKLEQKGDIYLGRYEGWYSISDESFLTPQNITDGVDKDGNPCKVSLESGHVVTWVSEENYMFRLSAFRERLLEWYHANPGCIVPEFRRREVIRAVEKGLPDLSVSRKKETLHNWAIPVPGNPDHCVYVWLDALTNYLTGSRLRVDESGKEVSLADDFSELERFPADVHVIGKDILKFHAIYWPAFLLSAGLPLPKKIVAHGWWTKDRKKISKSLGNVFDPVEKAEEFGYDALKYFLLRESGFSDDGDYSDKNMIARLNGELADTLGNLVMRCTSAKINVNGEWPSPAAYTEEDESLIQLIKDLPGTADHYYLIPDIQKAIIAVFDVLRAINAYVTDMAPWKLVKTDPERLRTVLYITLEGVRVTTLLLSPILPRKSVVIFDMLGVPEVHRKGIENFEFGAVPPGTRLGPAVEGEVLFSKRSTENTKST

[8] = cytotoxicity toward NIH3T3 fibroblasts, dose response, counter-screen, cell-based, ATP luminescence, mouse fibroblasts (AID 2010); assay type: functional;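 further: cells exposed to compound for about 90 hours before reading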
[9] = inhibitors of intracellular T. cruzi replication, confirmation, NIH3T3 host cells, beta-gal luminescence (AID 2044); assay type: functional, cell-based;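 further: intracellular parasites grown in NIH/3T3 mouse fibroblasts as host cells; luminescent beta-galactosidase reporter signal from transgenic T. cruzi replicating inside host cells; inhibitors lower the luminescence signal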
[10] = molecular target: T4, Methionyl-tRNA synthetase, putative; assay type: functional, Trypanosoma brucei brucei strain 927/4 GUTat10.1; remark: listed apart in the source
[11] = Luminescence Cell-Based Dose Confirmation HTS to Identify Activators of 5'UTR Stem-Loop Driven Alpha-Synuclein mRNA Translation in H4 Neuroglioblastoma Cells. [Related pubchem assays: 1829 (Project Summary), 1814 (Primary HTS)]; assay type: functional
[12] = Luminescence Cell-Based Dose Response HTS to Identify Activators of Luciferase Translation or Activity in H4 […] Cells. [Related pubchem assays: 1829 (Project Summary), 1814 (Primary HTS)]; assay type: functional
[13] = microbe, parasite or virus in culture; assay type: functional; conditions: Mycobacterium tuberculosis
[14] = molecular target: T5, DNA repair and recombination protein RAD54-like (Homo sapiens, UniProt Q92698); assay: inhibitors of human RAD54 branch migration, confirmation, biochemical, fluorescence, cherry-picked samples, dose series (AID 651657); assay type: functional
T5 sequence (Q92698 whole entry): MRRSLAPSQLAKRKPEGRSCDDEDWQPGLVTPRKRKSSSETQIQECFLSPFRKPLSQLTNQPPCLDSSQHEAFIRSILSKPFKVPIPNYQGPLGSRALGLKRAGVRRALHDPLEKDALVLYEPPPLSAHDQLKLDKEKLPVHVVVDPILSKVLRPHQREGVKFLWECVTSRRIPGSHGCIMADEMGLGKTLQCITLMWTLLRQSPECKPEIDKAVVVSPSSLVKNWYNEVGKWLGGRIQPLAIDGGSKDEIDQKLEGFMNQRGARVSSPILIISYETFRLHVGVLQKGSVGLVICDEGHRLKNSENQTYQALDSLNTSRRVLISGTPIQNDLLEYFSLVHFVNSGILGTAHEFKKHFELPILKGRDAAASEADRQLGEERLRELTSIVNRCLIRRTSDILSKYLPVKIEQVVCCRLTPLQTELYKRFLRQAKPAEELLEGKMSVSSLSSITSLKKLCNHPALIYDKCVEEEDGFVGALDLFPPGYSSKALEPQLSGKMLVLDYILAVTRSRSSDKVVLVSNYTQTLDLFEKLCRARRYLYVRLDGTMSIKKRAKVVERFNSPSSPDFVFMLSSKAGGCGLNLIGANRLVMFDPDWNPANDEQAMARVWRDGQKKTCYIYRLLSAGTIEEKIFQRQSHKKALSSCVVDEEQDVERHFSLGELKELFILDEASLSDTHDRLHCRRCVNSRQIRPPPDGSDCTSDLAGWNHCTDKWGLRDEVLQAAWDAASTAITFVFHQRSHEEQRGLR

[15] = MDA-MB-231 cell growth inhibition, dose response, cytotoxicity control for RAD54 inhibitor project, CellTiter-Glo luminescence, cherry-pick (AID 651692); assay type: functional, cell-based
[16] = test system: H4; assay: Luminescence Cell-Based Dose Response HTS to Identify Activators of 5'UTR Stem-Loop Driven Prion Protein mRNA Translation in H4 Neuroglioblastoma Cells. [Related pubchem assays: 1829 (Project Summary), 1814 (Primary HTS)]; assay type: functional; conditions: Homo sapiens
[17] = molecular target: T6, DNA repair protein RAD52 homolog (Homo sapiens, UniProt P43351); assay type: functional, biochemical
T6 sequence (P43351 whole entry): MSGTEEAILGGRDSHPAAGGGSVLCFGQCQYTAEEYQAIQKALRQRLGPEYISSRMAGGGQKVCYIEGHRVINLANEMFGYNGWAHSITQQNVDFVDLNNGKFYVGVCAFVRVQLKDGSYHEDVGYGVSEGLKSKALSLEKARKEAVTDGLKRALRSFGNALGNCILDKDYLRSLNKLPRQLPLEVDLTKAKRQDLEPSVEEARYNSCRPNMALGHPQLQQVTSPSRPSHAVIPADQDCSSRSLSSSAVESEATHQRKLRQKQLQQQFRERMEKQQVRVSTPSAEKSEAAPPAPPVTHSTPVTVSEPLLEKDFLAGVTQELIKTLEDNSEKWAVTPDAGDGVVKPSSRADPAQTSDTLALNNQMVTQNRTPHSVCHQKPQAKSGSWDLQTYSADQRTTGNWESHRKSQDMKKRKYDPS

[18] = molecular target: 5-hydroxytryptamine receptor 2A (Mus musculus, UniProt P35363); assay type: functional, cell-based;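 further: CHO-K1 cells with tagged receptor and beta-arrestin; agonist potency measured as compound-induced activation of the receptor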
[19] = molecular target: Mu-type opioid receptor (Homo sapiens, UniProt P35372); assay type: functional, cell-based;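 further: U2OS cells with beta-arrestin recruitment to OPRM1 by beta-gal complementation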
[20] = Luminescence Cell-Based Dose Retest to Confirm Inhibitors of Cancer Stem Cells. [Related pubchem assays (depositor defined):AID2717, AID2721]; assay type: functional; conditions: Homo sapiens
[21] = Vero E6 cell cytotoxicity, dose response, cytotoxicity control for non-replicating M. tuberculosis project, secondary assay (AID 492998); assay type: functional, VeroE6; conditions: Vero C1008
[22] = HepG2 cell cytotoxicity, dose response, cytotoxicity control for non-replicating M. tuberculosis project (AID 489018); assay type: functional; conditions: Mycobacterium tuberculosis
[23] = cells; assay type: functional
[24] = THP-1 cell cytotoxicity, dose response, cytotoxicity control for non-replicating M. tuberculosis project (AID 489025); assay type: functional

T3 sequence (P65502 whole entry): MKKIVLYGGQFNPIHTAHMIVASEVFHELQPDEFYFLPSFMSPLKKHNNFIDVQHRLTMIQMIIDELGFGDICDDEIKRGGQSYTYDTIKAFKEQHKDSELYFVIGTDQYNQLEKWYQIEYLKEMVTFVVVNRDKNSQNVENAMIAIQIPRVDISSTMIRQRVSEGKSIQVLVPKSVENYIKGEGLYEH
Chain of 5-hydroxytryptamine receptor 2A (P35363 whole entry): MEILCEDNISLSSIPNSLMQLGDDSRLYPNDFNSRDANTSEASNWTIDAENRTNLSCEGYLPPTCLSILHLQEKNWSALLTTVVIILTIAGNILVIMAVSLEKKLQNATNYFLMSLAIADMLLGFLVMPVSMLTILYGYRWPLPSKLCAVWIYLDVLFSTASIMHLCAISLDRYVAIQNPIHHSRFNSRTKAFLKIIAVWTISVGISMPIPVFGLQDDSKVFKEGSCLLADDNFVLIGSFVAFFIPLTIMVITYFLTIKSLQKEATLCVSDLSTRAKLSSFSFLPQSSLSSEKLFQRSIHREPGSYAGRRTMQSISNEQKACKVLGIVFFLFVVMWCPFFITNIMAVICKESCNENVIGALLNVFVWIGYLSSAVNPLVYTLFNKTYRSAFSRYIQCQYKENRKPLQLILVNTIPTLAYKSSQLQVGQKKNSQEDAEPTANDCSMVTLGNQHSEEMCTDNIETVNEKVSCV
Chain of Mu-type opioid receptor (P35372 whole entry): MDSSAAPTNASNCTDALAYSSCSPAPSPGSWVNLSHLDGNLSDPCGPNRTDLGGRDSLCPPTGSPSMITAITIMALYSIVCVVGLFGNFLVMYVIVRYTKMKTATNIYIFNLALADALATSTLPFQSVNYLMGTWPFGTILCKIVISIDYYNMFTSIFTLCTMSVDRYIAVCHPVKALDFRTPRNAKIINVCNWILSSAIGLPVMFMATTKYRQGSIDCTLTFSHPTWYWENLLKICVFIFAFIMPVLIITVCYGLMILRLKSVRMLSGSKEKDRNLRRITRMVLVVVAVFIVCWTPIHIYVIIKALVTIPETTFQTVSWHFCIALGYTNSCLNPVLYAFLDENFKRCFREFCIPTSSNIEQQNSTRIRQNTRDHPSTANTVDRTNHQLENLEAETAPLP

Clc1ccccc1Nc1nc2ccccc2o1
EC50 [1]: > 67.6 µM (inactive)

COc1ccc(C(=O)NC(=S)NNC(=O)c2c(-c3ccccc3)noc2C)cc1
IC50 [2]: 24.2 µM (inactive)
EC50 [3]: 3.76 µM (active)

Cc1ccc(-c2cc(-c3ccc(C)o3)nc(N)c2C#N)cc1
IC50 [4]: 2.43 µM (active)
IC50 [5]: 1.62 µM (active)

Cc1cc2c(c(=O)n1CC1CCCO1)C(c1ccc3c(c1)OCO3)C(C#N)=C(N)O2 (stereo unspecified)
IC50 [6]: 83.3 µM (inactive)
IC50 [7]: 119 µM (inactive)

O=C1[C@@H]2Cc3c([nH]c4ccccc34)C(c3cccc([N+](=O)[O-])c3)N2C(=O)CN1C1CCN(Cc2ccccc2)CC1 (stereo partly specified)
IC50 [6]: 27.1 µM (inactive)
EC50 [8]: 9.77 µM (active)
EC50 [9]: 1.8 µM (active)
IC50 [10]: 3.18 µM (active)
IC50 [7]: 1.82 µM (active)

Cc1ccc(C(=O)c2oc3ccc(Cl)cc3c2NC(=O)CN2CCN(C)CC2)cc1
EC50 [11]: > 120 µM (not active)
EC50 [12]: > 120 µM (not active)
CC50 [13]: 14.2 µM (active)
AC50 [14]: 11.8 µM (active)
AC50 [15]: 11.5 µM (active)
EC50 [16]: > 120 µM (not active)
AC50 [17]: 5.97 µM (active)

COc1cccc2c1cc1c(=O)n(CC(=O)N3CCC(C)CC3)nc(C)n12
EC50 [18]: 13.6 µM (inactive)
EC50 [19]: 92.5 µM (inactive)

Cc1cc(C)cc(NC(=O)C(OC(=O)c2ccc(NC(=O)CC#N)cc2)c2ccccc2)c1 (stereo unspecified)
IC50 [4]: 22.3 µM (active)
IC50 [5]: 14.6 µM (active)

O=C1NC[C@H](Cc2ccccc2)N(C[C@@H]2CCCN2C[C@H](Cc2ccccc2)N2C[C@H](Cc3ccc(O)cc3)N(CCc3ccccc3)C(=O)C2=O)C1=O
IC50 [4]: 30.8 µM (active)
IC50 [5]: 6.91 µM (active)

CCCN(CCC)CCNC(=O)c1cc2c(-c3ccc(Cl)cc3)nn(C)c2s1
CC50 [13]: 15.1 µM (active)
EC50 [18]: 6.58 µM (active)
AC50 [14]: 20.9 µM (active)
AC50 [20]: 3.81 µM (active)
CC50 [21]: 16.6 µM (active)
EC50 [19]: 92.5 µM (inactive)
CC50 [22]: 11.8 µM (active)
AC50 [15]: 37.1 µM (active)
IC50 [23]: 15.5 µM (active)
CC50 [24]: 31.6 µM (active)
AC50 [17]: 14.5 µM (active)
